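Dose response: 5 concentrations. Exposure: 48 h. Format: 96-well plates. Endpoint: linear interpolation; highest concentration if not reached. GI50 is the concentration that inhibits growth by half. At the TGI there is no net growth.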
How the values were obtained:
Experiment in all cases: inhibition of tumour cell growth, NCI panel, 48 h
[1] = tested on: 786-0 renal
[2] = tested on: A498 renal
[3] = tested on: A549 NSCLC
[4] = tested on: ACHN renal
[5] = tested on: BT-549 breast
[6] = tested on: CCRF-CEM leukemia
[7] = tested on: DU-145 prostate
[8] = tested on: EKVX NSCLC
[9] = tested on: HCC-2998 colon
[10] = tested on: HCT-116 colon
[11] = tested on: HCT-15 colon
[12] = tested on: HL-60(TB) leukemia
[13] = tested on: HOP-62 NSCLC
[14] = tested on: HOP-92 NSCLC
[15] = tested on: HS 578T breast
[16] = tested on: HT29 colon
[17] = tested on: IGROV1 ovarian
[18] = tested on: KM12 colon
[19] = tested on: LOX IMVI melanoma
[20] = tested on: M14 melanoma
[21] = tested on: MALME-3M melanoma
[22] = tested on: MCF7 breast
[23] = tested on: MDA-MB-231 breast
[24] = tested on: MDA-MB-435
[25] = tested on: MOLT-4 leukemia
[26] = tested on: NCI-H226 lung
[27] = tested on: NCI-H23 lung
[28] = tested on: NCI-H460 lung
[29] = tested on: NCI-H522 lung
[30] = tested on: NCI/ADR-RES ovarian
[31] = tested on: OVCAR-3 ovarian
[32] = tested on: OVCAR-4 ovarian
[33] = tested on: OVCAR-5 ovarian
[34] = tested on: OVCAR-8 ovarian
[35] = tested on: PC-3 prostate
[36] = tested on: RXF 393 renal
[37] = tested on: SF-268 CNS
[38] = tested on: SF-295 CNS
[39] = tested on: SF-539 CNS
[40] = tested on: SK-MEL-2 melanoma
[41] = tested on: SK-MEL-28 melanoma
[42] = tested on: SK-MEL-5 melanoma
[43] = tested on: SK-OV-3 ovarian
[44] = tested on: SN12C renal
[45] = tested on: SNB-19 CNS
[46] = tested on: SNB-75 CNS
[47] = tested on: SR leukemia
[48] = tested on: SW-620 colon
[49] = tested on: T-47D breast
[50] = tested on: TK-10 renal
[51] = tested on: U251 CNS
[52] = tested on: UACC-257 melanoma
[53] = tested on: UACC-62 melanoma
[54] = tested on: UO-31 renal

Q: With `COc1cc(NC(=O)Nc2cnc(Nc3ccc(N4CCOCC4)cc3)nc2Oc2cccc(OC)c2)cc(OC)c1` as the compound, how does the GI50 [1] read?
A: 928 nM

Q: And the TGI [1]?
A: 1880 nM

Q: What about the GI50 [2] of the same compound?
A: 1300 nM

Q: And the TGI [2]?
A: 2970 nM

Q: And the GI50 [3]?
A: 1990 nM

Q: What about the TGI [3] of the same compound?
A: 6470 nM

Q: What about the GI50 [4] of the same compound?
A: 1610 nM

Q: And the TGI [4]?
A: 6840 nM

Q: And the GI50 [5]?
A: 1490 nM

Q: And the TGI [5]?
A: 5740 nM

Q: What about the GI50 [6] of the same compound?
A: > 50000 nM

Q: What about the TGI [6] of the same compound?
A: > 50000 nM

Q: And the GI50 [7]?
A: 1730 nM

Q: And the TGI [7]?
A: 5820 nM

Q: What about the GI50 [8] of the same compound?
A: 2170 nM

Q: What about the TGI [8] of the same compound?
A: 24500 nM

Q: And the GI50 [9]?
A: 1320 nM

Q: And the TGI [9]?
A: 3620 nM

Q: What about the GI50 [10] of the same compound?
A: 1100 nM

Q: And the TGI [10]?
A: 2740 nM

Q: What about the GI50 [11] of the same compound?
A: 5350 nM

Q: And the TGI [11]?
A: > 50000 nM

Q: What about the GI50 [12] of the same compound?
A: 2760 nM

Q: What about the TGI [12] of the same compound?
A: > 50000 nM

Q: And the GI50 [13]?
A: 1760 nM

Q: And the TGI [13]?
A: 6900 nM

Q: And the GI50 [14]?
A: 1140 nM

Q: What about the TGI [14] of the same compound?
A: 3510 nM

Q: And the GI50 [15]?
A: 1970 nM

Q: What about the TGI [15] of the same compound?
A: 20600 nM

Q: What about the GI50 [16] of the same compound?
A: 1100 nM

Q: What about the TGI [16] of the same compound?
A: 3150 nM

Q: And the GI50 [17]?
A: 1800 nM

Q: And the TGI [17]?
A: 7770 nM

Q: And the GI50 [18]?
A: 2190 nM

Q: And the TGI [18]?
A: 22500 nM

Q: And the GI50 [19]?
A: 1470 nM

Q: And the TGI [19]?
A: 5590 nM

Q: And the GI50 [20]?
A: 1850 nM

Q: And the TGI [20]?
A: 9200 nM

Q: What about the GI50 [21] of the same compound?
A: 1280 nM

Q: And the TGI [21]?
A: 3820 nM

Q: What about the GI50 [22] of the same compound?
A: 1920 nM

Q: And the TGI [22]?
A: 18800 nM

Q: What about the GI50 [23] of the same compound?
A: 1410 nM

Q: What about the TGI [23] of the same compound?
A: 4700 nM

Q: And the GI50 [24]?
A: 1990 nM

Q: What about the TGI [24] of the same compound?
A: 11500 nM

Q: What about the GI50 [25] of the same compound?
A: 36800 nM

Q: And the TGI [25]?
A: > 50000 nM

Q: And the GI50 [26]?
A: 1880 nM

Q: And the TGI [26]?
A: 8480 nM

Q: What about the GI50 [27] of the same compound?
A: 1820 nM

Q: What about the TGI [27] of the same compound?
A: 11800 nM

Q: And the GI50 [28]?
A: 1120 nM

Q: And the TGI [28]?
A: 2270 nM

Q: What about the GI50 [29] of the same compound?
A: 1440 nM

Q: And the TGI [29]?
A: 6250 nM

Q: And the GI50 [30]?
A: 4040 nM

Q: And the TGI [30]?
A: > 50000 nM

Q: What about the GI50 [31] of the same compound?
A: 1270 nM

Q: What about the TGI [31] of the same compound?
A: 3250 nM

Q: And the GI50 [32]?
A: 1130 nM

Q: And the TGI [32]?
A: 2690 nM

Q: What about the GI50 [33] of the same compound?
A: 6490 nM

Q: And the TGI [33]?
A: 41600 nM

Q: What about the GI50 [34] of the same compound?
A: 1310 nM

Q: What about the TGI [34] of the same compound?
A: 3190 nM

Q: And the GI50 [35]?
A: 3160 nM

Q: And the TGI [35]?
A: 23700 nM

Q: What about the GI50 [36] of the same compound?
A: 887 nM

Q: What about the TGI [36] of the same compound?
A: 1820 nM

Q: And the GI50 [37]?
A: 2070 nM

Q: And the TGI [37]?
A: 12300 nM

Q: What about the GI50 [38] of the same compound?
A: 1190 nM

Q: And the TGI [38]?
A: 3610 nM

Q: What about the GI50 [39] of the same compound?
A: 884 nM

Q: What about the TGI [39] of the same compound?
A: 1750 nM

Q: What about the GI50 [40] of the same compound?
A: 1740 nM

Q: And the TGI [40]?
A: 8670 nM

Q: And the GI50 [41]?
A: 1610 nM

Q: And the TGI [41]?
A: 6210 nM

Q: And the GI50 [42]?
A: 1130 nM

Q: And the TGI [42]?
A: 2650 nM

Q: And the GI50 [43]?
A: 2790 nM

Q: And the TGI [43]?
A: 11100 nM

Q: And the GI50 [44]?
A: 1300 nM

Q: What about the TGI [44] of the same compound?
A: 3710 nM

Q: What about the GI50 [45] of the same compound?
A: 5730 nM

Q: And the TGI [45]?
A: > 50000 nM

Q: What about the GI50 [46] of the same compound?
A: 1100 nM

Q: And the TGI [46]?
A: 4690 nM

Q: And the GI50 [47]?
A: 2710 nM

Q: And the TGI [47]?
A: > 50000 nM

Q: And the GI50 [48]?
A: 2990 nM

Q: And the TGI [48]?
A: > 50000 nM

Q: And the GI50 [49]?
A: 2140 nM

Q: And the TGI [49]?
A: > 50000 nM

Q: And the GI50 [50]?
A: 1110 nM

Q: And the TGI [50]?
A: 2850 nM

Q: And the GI50 [51]?
A: 1630 nM

Q: And the TGI [51]?
A: 5050 nM

Q: What about the GI50 [52] of the same compound?
A: 3360 nM

Q: And the TGI [52]?
A: 16800 nM

Q: And the GI50 [53]?
A: 1350 nM

Q: What about the TGI [53] of the same compound?
A: 4040 nM

Q: What about the GI50 [54] of the same compound?
A: 1300 nM

Q: What about the TGI [54] of the same compound?
A: 6740 nM

From PubChem BioAssay (NCI)
